Results taken from PubChem BioAssay AID624404 (Broad Institute, 2012).
Records with an inconclusive call do not appear.

Each molecule was assayed on D54 LucT luciferase reporter counterscreen, luminescence, 24 h (assay: reporter signal increase, D54 LucT cells – cell-based, luminescence, cherry pick, counter-screen for N-linked glycosylation inhibitor project, dose response (AID 624404)).

Compound	AC35
CCc1ccc(C2c3[nH]c4ccccc4c3CCN2C(=O)c2ccc(=O)n(C)n2)cc1 (centres undefined)	1.24 µM
Cc1ccc(Sc2c(CO)c(-c3ccccc3)nn2C)cc1	0.166 µM
COc1ccc2c(c1)C(=O)N1[C@H]3c4cc(OC)ccc4OC[C@@H]3[C@H](c3ccccc3)[C@]1(C)C(=O)N2	0.0997 µM
COc1ccc(C2NC(=S)NC3=C2CCCC3=C2SCCS2)cc1 (centres undefined)	0.186 µM
COc1ccc(CCn2c(O)c(C=NCc3ccc4c(c3)OCO4)c(=O)[nH]c2=O)cc1OC	0.678 µM
NC(=O)CC(NC(=O)Cc1ccc(Br)cc1)c1ccc(NC2CCCC2)c([N+](=O)[O-])c1 (centres undefined)	2.87 µM
COc1cc2c(cc1OC)C(c1cccs1)N(C(=S)NC(C)C)CC2 (centres undefined)	0.0851 µM
Cc1nnc2c3ccccc3c(-c3cccs3)nn12	0.312 µM
NC(=O)CC(NC(=O)Cc1ccc(Br)cc1)c1ccc(NC2CCN(Cc3ccccc3)CC2)c([N+](=O)[O-])c1 (centres undefined)	0.983 µM
COCCNC(=O)c1cc(-c2cccs2)on1	1.02 µM
Cc1ccc2c(c1)C(=O)N1[C@H]3c4cc(Cl)ccc4OC[C@@H]3[C@H](c3ccccc3)[C@]1(C)C(=O)N2	0.65 µM
CCOc1ccc(Nc2nc(N(C)c3ccccc3)nc(N)c2[N+](=O)[O-])cc1	0.128 µM
Cc1ccc(S(=O)(=O)NC2=C(N3CCN(Cc4ccccc4)CC3)C(=O)c3ccccc3C2=O)cc1	2.54 µM
Cc1ccc(C(=O)Nc2ccccc2C(=O)N2CC(C)OC(C)C2)cc1 (centres undefined)	0.625 µM
COc1ccc(C(=O)c2ccc(OC)c(N)c2)cc1N	0.827 µM
CCOC(=O)[C@H]1[C@H]2COc3ccc(OC)cc3[C@@H]2N2C(=O)c3cc(OC)c(OC)cc3NC(=O)[C@@]12C	3.03 µM
O=C(NCCCn1ccnc1)c1cc(-c2ccccc2)on1	1.48 µM
COC(=O)c1c(NC(=O)c2cccnc2Cl)sc(C(=O)N(C)C)c1C	1.38 µM
Nc1ccc(C(=O)Nc2ccccc2N)cc1	0.744 µM
Cc1ccc2nc(SCc3nnc(-c4ccccc4[N+](=O)[O-])o3)c(C#N)cc2c1	1.3 µM
COc1cc(F)ccc1-c1csc(C(NC(C)=O)c2ccccc2)n1 (centres undefined)	0.243 µM
O=C(/C=C/c1ccccc1Cl)c1ccc(O)cc1	0.201 µM
CSc1ncnc2c1ncn2CCCN[C@H](C)c1cccc2ccccc12	0.527 µM
CCN(CC)S(=O)(=O)c1ccc(N2CCOCC2)c(NC(=O)c2[nH]c(C)c(C(C)=O)c2C)c1	0.33 µM
CCC(c1nc2ccccc2c(=O)n1-c1nc2ccccc2s1)N1C(=O)c2ccccc2C1=O (centres undefined)	0.74 µM
Cc1ccc(-c2cc(C(=O)N3CC(C)OC(C)C3)c3ccccc3n2)o1 (centres undefined)	2.91 µM
Cn1c(=O)n(C)c2cc(NS(=O)(=O)c3ccc(F)cc3)ccc21	1.24 µM

Compound	AC35
COc1cc2c(cc1OC)C(c1cccs1)N(C(=O)c1ccncc1)CC2 (centres undefined)	1.7 µM
CCCNc1nc2ccccc2n2c(C)nnc12	0.0191 µM
COC(=O)c1c(C)[nH]c(C(=O)/C=C/c2cccc(Cl)c2)c1C	0.839 µM
Cn1c(-c2ccccc2)c(/C=N/NC(=O)c2ccc(O)cc2)c2ccccc21	0.319 µM
c1ccc2c(c1)C1=NCCN1c1ccccc1-2	6.25 µM
Cc1ccc(C(=O)N/C(=C/c2ccco2)C(=O)NCCc2c[nH]c3ccccc23)cc1	1.75 µM
Cc1ccc(-c2nc3ncccc3o2)cc1NC(=O)c1ccc([N+](=O)[O-])o1	0.505 µM
Cc1ccc(C(=O)Nc2ccc(C(=O)/C=C/c3cccs3)cc2)cc1	0.709 µM
O=C(N/N=C/c1ccccn1)c1sc2ccccc2c1Cl	0.0931 µM
Cc1ccc(C)c(Cn2nnc3c(=O)[nH]c(C4CCN(C(=O)c5ccco5)CC4)nc32)c1	0.852 µM
COc1ccc(CNC(=O)c2cccc3c(-c4cnn(C)c4)coc23)cc1OC	1.3 µM
NNC(=O)c1ccc(OCC2CC(c3ccc(Cl)cc3)=NO2)cc1 (centres undefined)	0.157 µM
CC1(C)Cc2nc3sc4c(SCC(=O)NCc5ccccc5)ncnc4c3cc2CO1	0.0157 µM
COc1cc2c(cc1OC)C(c1ccccc1)N(C(=O)c1ccco1)CC2 (centres undefined)	0.375 µM
COc1cc2c(cc1OC)C(c1ccccc1)N(C(=O)c1cccc(S(C)(=O)=O)c1)CC2 (centres undefined)	0.212 µM
Cc1nnc2n(c1=O)N=C(c1ccc(Cl)cc1)CS2	0.0335 µM
CCCCn1c(SCc2c(C)noc2C)nc2cc(S(N)(=O)=O)ccc21	0.68 µM
Cn1c(=O)cc(OCCCC(=O)Nc2ccc3c(c2)OCCO3)c2ccccc21	0.353 µM
COc1cc(NC(=O)c2ccc(-c3c(C)noc3C)c3ccoc23)cc(OC)c1OC	0.0582 µM
Cn1c(=O)[nH]c(=O)c2c1nc(N(CCO)Cc1ccccc1)n2CCCc1ccccc1	0.547 µM
N=c1c(S(=O)(=O)c2ccc(Cl)cc2)cc2c(=O)n3ccccc3nc2n1CCc1ccccc1	0.564 µM
O=C(c1cccc(Oc2ccccc2)c1)N1CCN(c2ccccn2)CC1	2.96 µM
CCn1c(=S)[nH]c2cc(S(=O)(=O)N3CCCCC3)ccc21	1.25 µM
Cc1ccc(N2CC(C(=O)Nc3ccc(S(=O)(=O)N4CCOCC4)cc3)CC2=O)cc1Cl (centres undefined)	2.53 µM
COc1ccccc1-n1cnc2cc(NCc3cccs3)ccc21	0.266 µM
COc1ccc(C2(CNC(=O)c3cc(OC)c(OC)c(OC)c3)CCCC2)cc1OC	3.41 µM
O=C(NCc1ccccc1Br)c1cccc2c1C(=O)c1ccc(-c3ccc(OC(F)(F)F)cc3)cc1S2(=O)=O	0.408 µM
